# From ChEMBL document CHEMBL1153077, “Highly tractable, sub-nanomolar non-steroidal glucocorticoid receptor agonists” (Bioorg Med Chem Lett, 2009)
# What was measured:
# [1] = molecular target: T1, Glucocorticoid receptor (Homo sapiens, UniProt P04150)
# T1 sequence (P04150 whole entry): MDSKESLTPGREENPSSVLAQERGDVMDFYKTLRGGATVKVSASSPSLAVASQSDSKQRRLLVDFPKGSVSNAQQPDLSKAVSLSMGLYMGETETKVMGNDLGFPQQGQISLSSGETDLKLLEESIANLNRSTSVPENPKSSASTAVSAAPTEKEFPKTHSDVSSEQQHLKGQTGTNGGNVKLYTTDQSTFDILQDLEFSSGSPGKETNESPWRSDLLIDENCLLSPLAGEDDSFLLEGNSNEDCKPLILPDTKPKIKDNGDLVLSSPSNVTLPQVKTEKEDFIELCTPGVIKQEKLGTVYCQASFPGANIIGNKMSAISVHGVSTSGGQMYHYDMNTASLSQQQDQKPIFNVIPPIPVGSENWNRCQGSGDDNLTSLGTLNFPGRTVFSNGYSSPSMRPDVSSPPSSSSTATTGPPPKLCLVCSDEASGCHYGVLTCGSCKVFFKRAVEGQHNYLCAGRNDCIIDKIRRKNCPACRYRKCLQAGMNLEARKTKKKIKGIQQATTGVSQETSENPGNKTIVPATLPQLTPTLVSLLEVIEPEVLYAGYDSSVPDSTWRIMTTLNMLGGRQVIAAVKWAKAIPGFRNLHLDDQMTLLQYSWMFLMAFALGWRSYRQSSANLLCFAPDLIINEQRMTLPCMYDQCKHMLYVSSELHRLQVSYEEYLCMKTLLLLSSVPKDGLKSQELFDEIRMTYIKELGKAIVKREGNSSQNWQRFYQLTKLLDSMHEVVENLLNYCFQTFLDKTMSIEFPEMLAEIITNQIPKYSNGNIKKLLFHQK
# [2] = Selectivity ratio of pIC50 for progesterone receptor to pIC50 for human glucocorticoid receptor
# [3] = Selectivity ratio of pIC50 for estrogen receptor to pIC50 for human glucocorticoid receptor
# [4] = Selectivity ratio of pIC50 for androgen receptor to pIC50 for human glucocorticoid receptor
smiles,measurement,setting,value
CCC1(CC(O)(CNC(=O)c2cnn(-c3ccccc3)c2N)C(F)(F)F)CCCc2ccccc21 (racemic),IC50,[1],1.58 nM
CCN(CC(O)(CNc1cccc2c1cnn2-c1ccc(F)cc1)C(F)(F)F)C(=O)c1c(C)cccc1C (racemic),IC50,[1],0.501 nM
same,Ratio pIC50,[2],> 50
same,Ratio pIC50,[3],> 50
same,Ratio pIC50,[4],> 50
CCN(CC(O)(CNc1cccc2c1cnn2-c1ccc(F)cc1)C(F)(F)F)C(=O)c1ccccc1F (racemic) [listing 1 of 2 here],IC50,[1],0.2 nM
CCN(CC(O)(CNc1cccc2c1cnn2-c1ccc(F)cc1)C(F)(F)F)C(=O)c1ccccc1C (racemic),IC50,[1],0.316 nM
same,Ratio pIC50,[2],> 50
same,Ratio pIC50,[3],> 50
same,Ratio pIC50,[4],> 50
CCN(CC(O)(CNc1cccc2c1cnn2-c1ccc(F)cc1)C(F)(F)F)C(=O)c1c(Cl)cccc1Cl (racemic) [listing 1 of 2 here],IC50,[1],0.126 nM
CCN(CC(O)(CNc1cccc2c1cnn2-c1ccc(F)cc1)C(F)(F)F)C(=O)c1c(F)cccc1F (racemic),IC50,[1],0.316 nM
same,Ratio pIC50,[2],> 50
same,Ratio pIC50,[3],> 50
same,Ratio pIC50,[4],> 50
CCCN(CC(O)(CNc1cccc2c1cnn2-c1ccccc1)C(F)(F)F)C(=O)c1ccccc1 (racemic),IC50,[1],3.16 nM
same,Ratio pIC50,[2],> 50
same,Ratio pIC50,[3],> 50
same,Ratio pIC50,[4],> 50
CCN(CC(O)(CNc1cccc2c1cnn2-c1ccccc1)C(F)(F)F)C(=O)c1ccccc1F (racemic),IC50,[1],0.316 nM
same,Ratio pIC50,[2],> 50
same,Ratio pIC50,[3],> 50
same,Ratio pIC50,[4],> 50
CCN(CC(O)(CNc1cccc2c1cnn2-c1ccccc1)C(F)(F)F)S(=O)(=O)c1ccc(F)cc1 (racemic),IC50,[1],7.94 nM
same,Ratio pIC50,[2],> 50
same,Ratio pIC50,[3],> 50
same,Ratio pIC50,[4],> 50
CCN(CC(O)(CNc1cccc2c1cnn2-c1ccccc1)C(F)(F)F)S(=O)(=O)c1ccccc1 (racemic),IC50,[1],2.51 nM
same,Ratio pIC50,[2],> 50
same,Ratio pIC50,[3],> 50
same,Ratio pIC50,[4],> 50
CN(CC(O)(CNc1cccc2c1cnn2-c1ccccc1)C(F)(F)F)C(=O)c1ccccc1 (racemic),IC50,[1],5.01 nM
same,Ratio pIC50,[2],> 50
same,Ratio pIC50,[3],> 50
same,Ratio pIC50,[4],> 50
CCN(CC(O)(CNc1cc(C)cc2c1cnn2-c1ccccc1)C(F)(F)F)C(=O)c1ccccc1 (racemic),IC50,[1],0.398 nM
same,Ratio pIC50,[2],> 50
same,Ratio pIC50,[3],> 50
same,Ratio pIC50,[4],> 50
CCN(CC(O)(CNc1cc(C)cc2c1cnn2-c1ccccc1)C(F)(F)F)C(=O)c1ccccc1F (racemic),IC50,[1],0.251 nM
same,Ratio pIC50,[2],> 50
same,Ratio pIC50,[3],> 50
same,Ratio pIC50,[4],> 50
CCN(CC(O)(CNc1cccc2c1cnn2-c1ccc(F)cc1)C(F)(F)F)C(=O)c1ccccc1 (racemic),IC50,[1],0.794 nM
same,Ratio pIC50,[2],> 50
same,Ratio pIC50,[3],> 50
same,Ratio pIC50,[4],> 50
CCN(CC(O)(CNc1cc(C)cc2c1cnn2-c1ccc(F)cc1)C(F)(F)F)C(=O)c1ccccc1 (racemic),IC50,[1],0.398 nM
same,Ratio pIC50,[2],> 50
same,Ratio pIC50,[3],> 50
same,Ratio pIC50,[4],> 50
CCN(CC(O)(CNc1nc(C)nc2c1cnn2-c1ccccc1)C(F)(F)F)S(=O)(=O)c1ccc(F)cc1 (racemic),IC50,[1],25.1 nM
same,Ratio pIC50,[2],> 50
same,Ratio pIC50,[3],> 50
same,Ratio pIC50,[4],> 50
CCN(CC(O)(CNc1cccc2c1cnn2-c1ccccc1)C(F)(F)F)C(=O)c1ccccc1 (racemic),IC50,[1],0.794 nM
same,Ratio pIC50,[2],> 50
same,Ratio pIC50,[3],> 50
same,Ratio pIC50,[4],> 50
CCN(CC(O)(CNc1cccc2c1cnn2-c1ccc(F)cc1)C(F)(F)F)C(=O)c1ccccc1Cl (racemic),IC50,[1],0.251 nM
same,Ratio pIC50,[2],> 50
same,Ratio pIC50,[3],> 50
same,Ratio pIC50,[4],> 50
CCN(CC(O)(CNc1cc(C)cc2c1cnn2-c1ccc(F)cc1)C(F)(F)F)C(=O)c1ccccc1F (racemic),IC50,[1],0.2 nM
same,Ratio pIC50,[2],> 50
same,Ratio pIC50,[3],> 50
same,Ratio pIC50,[4],> 50
CCN(CC(O)(CNC(=O)c1cnn(-c2ccccc2)c1N)C(F)(F)F)S(=O)(=O)c1ccc(F)cc1 (racemic),IC50,[1],31.6 nM
same,Ratio pIC50,[2],> 50
same,Ratio pIC50,[3],> 50
same,Ratio pIC50,[4],> 50
CCN(CC(O)(CNc1cccc2c1cnn2-c1ccc(F)cc1)C(F)(F)F)C(=O)c1c(Cl)cccc1Cl (racemic) [listing 2 of 2 here],Ratio pIC50,[2],> 50
same,Ratio pIC50,[3],> 50
same,Ratio pIC50,[4],> 50
CCN(CC(O)(CNc1cccc2c1cnn2-c1ccc(F)cc1)C(F)(F)F)C(=O)c1ccccc1F (racemic) [listing 2 of 2 here],Ratio pIC50,[2],> 50
same,Ratio pIC50,[3],> 50
same,Ratio pIC50,[4],> 50
CCN(CC(O)(CNc1cccc2c1cnn2-c1ccc(F)cc1)C(F)(F)F)C(=O)c1ccccc1F (stereo in doubt; 32E1) [listing 1 of 2 here],IC50,[1],0.126 nM
CCN(CC(O)(CNc1cccc2c1cnn2-c1ccc(F)cc1)C(F)(F)F)C(=O)c1ccccc1F (stereo in doubt; 32E1) [listing 2 of 2 here],Ratio pIC50,[2],> 50
same,Ratio pIC50,[3],> 50
same,Ratio pIC50,[4],> 50
CCN(CC(O)(CNc1cccc2c1cnn2-c1ccc(F)cc1)C(F)(F)F)C(=O)c1ccccc1F (stereo in doubt; 32E2) [listing 1 of 2 here],IC50,[1],31.6 nM
CCN(CC(O)(CNc1cccc2c1cnn2-c1ccc(F)cc1)C(F)(F)F)C(=O)c1ccccc1F (stereo in doubt; 32E2) [listing 2 of 2 here],Ratio pIC50,[2],> 50
same,Ratio pIC50,[3],> 50
same,Ratio pIC50,[4],> 50
CCN(CC(O)(CNc1cccc2c1cnn2-c1ccc(F)cc1)C(F)(F)F)C(=O)c1c(Cl)cccc1Cl (stereo in doubt; 38E1) [listing 1 of 2 here],IC50,[1],0.0794 nM
CCN(CC(O)(CNc1cccc2c1cnn2-c1ccc(F)cc1)C(F)(F)F)C(=O)c1c(Cl)cccc1Cl (stereo in doubt; 38E1) [listing 2 of 2 here],Ratio pIC50,[2],> 50
same,Ratio pIC50,[3],> 50
same,Ratio pIC50,[4],> 50
CCN(CC(O)(CNc1cccc2c1cnn2-c1ccc(F)cc1)C(F)(F)F)C(=O)c1c(Cl)cccc1Cl (stereo in doubt; 38E2) [listing 1 of 2 here],IC50,[1],10 nM
CCN(CC(O)(CNc1cccc2c1cnn2-c1ccc(F)cc1)C(F)(F)F)C(=O)c1c(Cl)cccc1Cl (stereo in doubt; 38E2) [listing 2 of 2 here],Ratio pIC50,[2],> 50
same,Ratio pIC50,[3],> 50
same,Ratio pIC50,[4],> 50
